Test results from US12312359B2 (Vitae Pharmaceuticals, LLC, priority 2016, dated 2025).

Tests used:
[1] = Water activity analysis (slurries) of sesquifumaric acid salt forms; type: physicochemical; settings: for Result (solid form after water activity slurry): ambient, 7 days; for Form conversion in water activity slurry: 0.22 aw (and up)
[2] = Physical stability analysis of sesquifumaric acid salt forms (drying, heating); type: physicochemical

## CC(C)N(C(=O)c1cc(F)ccc1Oc1cncnc1N1CC2(CCN(CC3CCC(NS(C)(=O)=O)CC3)CC2)C1)C(C)C.CC(C)N(C(=O)c1cc(F)ccc1Oc1cncnc1N1CC2(CCN(CC3CCC(NS(C)(=O)=O)CC3)CC2)C1)C(C)C.O=C(O)/C=C/C(=O)O.O=C(O)/C=C/C(=O)O.O=C(O)/C=C/C(=O)O (stereo not shown)
[1]; H2O/ACN, water activity 0.38 (2 vol % H2O)
  Result (solid form after water activity slurry): Form A
[1]; H2O/ACN, water activity 0.60 (4 vol % H2O)
  Result (solid form after water activity slurry): Form A
[1]; H2O/IPA, water activity 0.50 (6 vol % H2O)
  Result (solid form after water activity slurry): Form A
[1]; H2O/IPA, water activity 0.70 (11 vol % H2O)
  Result (solid form after water activity slurry): Form A
[1]; H2O/IPA, water activity 0.96 (50 vol % H2O)
  Result (solid form after water activity slurry): Form A
[1]; H2O/acetone, water activity 0.22 (1 vol % H2O)
  Result (solid form after water activity slurry): Form A
[1]; H2O/acetone, water activity 0.44 (3 vol % H2O)
  Result (solid form after water activity slurry): Form A
[1]; H2O/acetone, water activity 0.80 (18 vol % H2O)
  Result (solid form after water activity slurry): Form A
[1]; H2O/acetone, water activity 0.91 (50 vol % H2O)
  Result (solid form after water activity slurry): Form A

## CC(C)N(C(=O)c1cc(F)ccc1Oc1cncnc1N1CC2(CCN(C[C@H]3CC[C@H](NS(C)(=O)=O)CC3)CC2)C1)C(C)C.CC(C)N(C(=O)c1cc(F)ccc1Oc1cncnc1N1CC2(CCN(C[C@H]3CC[C@H](NS(C)(=O)=O)CC3)CC2)C1)C(C)C.O=C(O)/C=C/C(=O)O.O=C(O)/C=C/C(=O)O.O=C(O)/C=C/C(=O)O [Form E, 5-fluoro-N,N-diisopropyl-2-((4-(7-(((1r,4r)-4-(methylsulfonamido)cyclohexyl)methyl)-2,7-diazaspiro[3.5]nonan-2-yl)pyrimidin-5-yl)oxy)benzamide sesquifumaric acid salt]
[2]
  Form change after 45° C. vacuum oven: No changes observed in XRPD
[2]; 45° C. vacuum, 1 day
  Result (solid form after physical stability stress): Form E

## CC(C)N(C(=O)c1cc(F)ccc1Oc1cncnc1N1CC2(CCN(C[C@H]3CC[C@H](NS(C)(=O)=O)CC3)CC2)C1)C(C)C.CC(C)N(C(=O)c1cc(F)ccc1Oc1cncnc1N1CC2(CCN(C[C@H]3CC[C@H](NS(C)(=O)=O)CC3)CC2)C1)C(C)C.O=C(O)/C=C/C(=O)O.O=C(O)/C=C/C(=O)O.O=C(O)/C=C/C(=O)O [Form B, 5-fluoro-N,N-diisopropyl-2-((4-(7-(((1r,4r)-4-(methylsulfonamido)cyclohexyl)methyl)-2,7-diazaspiro[3.5]nonan-2-yl)pyrimidin-5-yl)oxy)benzamide sesquifumaric acid salt]
[2]
  Form change after 45° C. vacuum oven: converted to Form D
[1]
  Form conversion in water activity slurry: Converted to Form A

## CC(C)N(C(=O)c1cc(F)ccc1Oc1cncnc1N1CC2(CCN(C[C@H]3CC[C@H](NS(C)(=O)=O)CC3)CC2)C1)C(C)C.CC(C)N(C(=O)c1cc(F)ccc1Oc1cncnc1N1CC2(CCN(C[C@H]3CC[C@H](NS(C)(=O)=O)CC3)CC2)C1)C(C)C.O=C(O)/C=C/C(=O)O.O=C(O)/C=C/C(=O)O.O=C(O)/C=C/C(=O)O [Form F, 5-fluoro-N,N-diisopropyl-2-((4-(7-(((1r,4r)-4-(methylsulfonamido)cyclohexyl)methyl)-2,7-diazaspiro[3.5]nonan-2-yl)pyrimidin-5-yl)oxy)benzamide sesquifumaric acid salt]
[1]; slurried in ACN/water mixture
  Form conversion when slurried in ACN/water mixture: Conversion to Form A was observed

## CC(C)N(C(=O)c1cc(F)ccc1Oc1cncnc1N1CC2(CCN(C[C@H]3CC[C@H](NS(C)(=O)=O)CC3)CC2)C1)C(C)C.CC(C)N(C(=O)c1cc(F)ccc1Oc1cncnc1N1CC2(CCN(C[C@H]3CC[C@H](NS(C)(=O)=O)CC3)CC2)C1)C(C)C.O=C(O)/C=C/C(=O)O.O=C(O)/C=C/C(=O)O.O=C(O)/C=C/C(=O)O [Form D, 5-fluoro-N,N-diisopropyl-2-((4-(7-(((1r,4r)-4-(methylsulfonamido)cyclohexyl)methyl)-2,7-diazaspiro[3.5]nonan-2-yl)pyrimidin-5-yl)oxy)benzamide sesquifumaric acid salt]
[2]; 75% RH, 2 days
  Result (solid form after physical stability stress): Form D
[1]
  Form conversion in water activity slurry: Converted to Form A
